Measured values reported in patent US5534416A, “Fluorescent viability assay using cyclic-substituted unsymmetrical cyanine dyes” (Molecular Probes, Inc., priority 1993, dated 1996).

Tests used:
nucleic acids = test: Excitation/emission maxima of dyes complexed with nucleic acids; assay type: physicochemical; set-up: key: wavelength in nm; conditions: Table 2; dye complexed with nucleic acids
Excerpt: Dye I is lightly colored and is virtually non-fluorescent when diluted in aqueous solution according to the method of the invention. Dye I is highly membrane-permeant and labels all cells, whether live or dead. When Dye I binds with intracellular nucleic acid polymers such as DNA and RNA, the resultant dye-nucleic acid complex becomes extremely fluorescent upon illumination. The quantum yield of the preferred Dye I/DNA complex is greater than 0.02, typically greater than 0.1, preferably greater than 0.2, and more preferably greater than 0.3. Typically, Dye I combines with intracellular nucleic acids to give a green or red fluorescence. When excited at a wavelength between about 300 nm and about 500 nm, the dyes complexed with nucleic acids have an emission maximum between about 500 and about 610 nm (see Table 2). Preferably, Dye I complexed with nucleic acids has an emission maximum of between about 500 nm and about 535 nm, resulting in a true green fluorescent signal in cells of the sample where Dye I is present alone.

DNA = test: Quantum yield of dye on DNA versus fluorescein; assay type: physicochemical; conditions: Table 2; Tris buffered saline pH 10; fluorescein assumed 0.92
Excerpt: ^ Quantum yield (QY) of dye on DNA (standard solution in Tris buffere
saline adjusted to pH 10) in comparison with fluorescein, which is assume
to have a quantum yield of 0.92 under the test conditions.
Factors such as degree of fluorescence enhancement with nucleic acid binding, self quenching, molar extinction coefficient, membrane permeability, intracellular partitioning, nucleic acid binding affinity, and quantum yield contribute to the overall fluorescence of nucleic acid stains in cells. Enhanced cell fluorescence obtained with Dye I is related to unexpected properties other than quantum yield alone. Quantum yield is determined as described above (foot note to Table 2). Normalized quantum yield is determined to illustrate the fold-change in quantum yield of Dye I compared with thiazole orange, a related cell-permeant dye. The normalized fluorescence values represent the quantum yield of each dye divided by the quantum yield of thiazole orange. Fluorescence per cell is also scaled to thiazole orange values for both E. coli and S. aureus to allow direct comparison between relative (normalized) quantum yield and relative (normalized) fluorescence/cell.

calf thymus DNA = conditions: Table 5; bound to excess calf thymus DNA (50 bp/dye); cited from earlier work

| SMILES | EM max (nucleic acids) | EX max (nucleic acids) | QY (DNA) (DNA) | EM max (calf thymus DNA) [nm] | EX max (calf thymus DNA) [nm] |
| --- | --- | --- | --- | --- | --- |
| C[n+]1c(C=C2C=C(Cl)N(C3CCCCC3)c3ccccc32)sc2ccccc21 [780 (Cl)] | 536 | 513 | 0.09 | – | – |
| CSC1=CC(=Cc2sc3ccccc3[n+]2C)c2ccccc2N1C1CCCCC1 [780 (S)] | – | – | 0.31 | – | – |
| C[n+]1c(C=C2C=CN(CCC[N+](C)(C)C)C=C2)sc2ccccc21 [BO-PRO-1] | – | – | – | 481 | 462 |
| C[n+]1c(C=CC=C2C=CN(CCC[N+](C)(C)C)C=C2)sc2ccccc21 [BO-PRO-3] | – | – | – | 599 | 575 |
| C[n+]1c(C=C2C=CN(CCC[N+](C)(C)CCC[N+](C)(C)CCCN3C=CC(=Cc4sc5ccccc5[n+]4C)C=C3)C=C2)sc2ccccc21 [BOBO-1] | – | – | – | 481 | 462 |
| C[n+]1c(C=CC=C2C=CN(CCC[N+](C)(C)CCC[N+](C)(C)CCCN3C=CC(=CC=Cc4sc5ccccc5[n+]4C)C=C3)C=C2)sc2ccccc21 [BOBO-3] | – | – | – | 602 | 570 |
| CC[n+]1c(-c2ccccc2)c2cc(N)ccc2c2ccc(N)cc21 [Ethidium bromide] | – | – | – | 595 | 510 |
| CC[n+]1c(-c2ccccc2)c2cc(N=[N+]=[N-])ccc2c2ccc(N)cc21 [Ethidium monoazide] | – | – | – | 615 | 465 |
| C[n+]1c(C=C2C=CN(CCC[N+](C)(C)C)C=C2)oc2ccccc21 [PO-PRO-1] | – | – | – | 455 | 435 |
| C[n+]1c(C=CC=C2C=CN(CCC[N+](C)(C)C)C=C2)oc2ccccc21 [PO-PRO-3] | – | – | – | 567 | 539 |
| C[n+]1c(C=C2C=CN(CCC[N+](C)(C)CCC[N+](C)(C)CCCN3C=CC(=Cc4oc5ccccc5[n+]4C)C=C3)C=C2)oc2ccccc21 [POPO-1] | – | – | – | 456 | 434 |
| C[n+]1c(C=CC=C2C=CN(CCC[N+](C)(C)CCC[N+](C)(C)CCCN3C=CC(=CC=Cc4oc5ccccc5[n+]4C)C=C3)C=C2)oc2ccccc21 [POPO-3] | – | – | – | 570 | 534 |
| CC[N+](C)(CC)CCC[n+]1c(-c2ccccc2)c2cc(N)ccc2c2ccc(N)cc21 [Propidium iodide] | – | – | – | 617 | 536 |
| C[n+]1c(C=C2C=CN(CCC[N+](C)(C)C)c3ccccc32)sc2ccccc21 [TO-PRO-1] | – | – | – | 531 | 515 |
| C[n+]1c(C=CC=C2C=CN(CCC[N+](C)(C)C)c3ccccc32)sc2ccccc21 [TO-PRO-3] | – | – | – | 661 | 642 |
| C[n+]1c(C=C2C=CN(CCC[N+](C)(C)CCC[N+](C)(C)CCCN3C=CC(=Cc4sc5ccccc5[n+]4C)c4ccccc43)c3ccccc32)sc2ccccc21 [TOTO-1] | – | – | – | 533 | 514 |
| C[n+]1c(C=CC=C2C=CN(CCC[N+](C)(C)CCC[N+](C)(C)CCCN3C=CC(=CC=Cc4sc5ccccc5[n+]4C)c4ccccc43)c3ccccc32)sc2ccccc21 [TOTO-3] | – | – | – | 660 | 642 |
| C[n+]1c(C=C2C=CN(CCC[N+](C)(C)C)c3ccccc32)oc2ccccc21 [YO-PRO-1] | – | – | – | 509 | 491 |
| C[n+]1c(C=CC=C2C=CN(CCC[N+](C)(C)C)c3ccccc32)oc2ccccc21 [YO-PRO-3] | – | – | – | 631 | 612 |
| C[n+]1c(C=C2C=Cc3ccccc3N2c2ccccc2)sc2ccccc21 [compound 64] | 523 | 450 | – | – | – |
| CCCCc1cc(C=C2Sc3ccccc3N2C)c2ccccc2[n+]1-c1cccs1 [compound 71] | 526 | 508 | 0.31 | – | – |
| CN1C=CC(=Cc2sc3ccccc3[n+]2C)c2cccc(-c3ccccc3)c21 [compound 72] | 535 | 515 | 0.026 | – | – |
| CN1C(=Cc2cc[n+](C3CCCCC3)c3ccccc23)Sc2ccccc21 [compound 73] | 525 | 508 | 0.31 | – | – |
| CCN1C(=Cc2cc(Cl)[n+](-c3ccccc3)c3ccccc23)Sc2ccccc21 [compound 200] | 759 | 739 | – | – | – |
| CN1C(=Cc2cc[n+](C3CCCCC3)c3ccccc23)Sc2ccccc21 [compound 542] | 527 | 510 | – | – | – |
